This passage reports IC50 results from patent publication US20250197399A1, “COMPOUNDS, COMPOSITIONS, AND METHODS” (Tenvie Therapeutics, Inc., priority 2022, published 2025).

Like-named read-outs stand apart in the source and are kept apart here.

The test system of the test is NLRP3. The test is described as follows: IL-1β secretion assay in PMA-differentiated, LPS/nigericin-stimulated THP-1 cells (ELISA). The class given is cell-based. To be noted: 25 ng/mL LPS then nigericin, IL-1β in supernatant. The protocol: Compounds as provided herein were tested in the following assay. Cell culture medium employed contained RPMI 1640 medium (89%), FBS (10%), Pen/Strep (1%), and 2-mercaptoethanol (0.05 mM). Freezing medium was made up of 90% FBS and 10% DMSO. THP-1 cells were removed from the liquid nitrogen and placed into a 37° C. water bath to thaw, until signs of ice dissipated. The cells were then added to 9 mL of warm cell culture medium and centrifuged for 5 minutes at 1000 rpm. The supernatant was discarded, and the cells were resuspended in new cell culture medium. THP-1 cells were then split and cultured in the cell culture medium, being passaged every 2-3 days with the cell density will be maintained between 5×10^5 and 1.5×10^6 viable cells/mL.
PMA was dissolved in DMSO to make a stock solution at 5 mg/ml and stored in 10 μl aliquots at −20° C. for single use. PMA is added to normal growth medium. LPS was diluted with 1 mL of water solution to provide a 1 mg/mL stock solution and stored in 15 μL aliquots at −20° C. for single use. Nigericin is diluted in ice cold 100% ethanol to 5 mg/ml (6.7 mM) and stored in 75 μL aliquots at −20° C. for single use. Serum-free media contains RPMI 1640 medium (99%), Pen/Strep (1%), and 2-mercaptoethanol (0.05 mM). The two control conditions used to qualify and normalize test compound dose-response curves were as follows: High Control=25 ng/mL LPS, […], 0.5% DMSO, Low Control=25 ng/mL, LPS, 0.5% DMSO.
THP-1 cells were diluted to provide a suspension at a concentration of 1.0×10^6 cells/mL with the total volume of suspension required to enable the desired number of assay plates. The growth media was supplemented with PMA (5 ng/mL final concentration) and the cells were incubated at 37° C. under a humidified atmosphere of 5% CO2 for 40 h.
All media was carefully aspirated from each culture flask. The cells were washed carefully with 1×DPBS. The cells were then briefly digested with trypsin LE for 5 minutes at 23° C. and immediately resuspended in cell growth media. After resuspension, the cells were centrifuged at 1000 rpm for 3 minutes and the supernatant was discarded. The cells were resuspended in DPBS and once again centrifuged at 1000 rpm for 5 minutes. The supernatant was discarded and the cell pellet was resuspended in serum-free media supplemented with LPS (25 ng/mL final concentration) to enable the distribution of 30K THP-1 cells within 45 μL of media into each well of 384-well PDL-coated plates. The 384-well plates were then incubated at 37° C. under a humidified atmosphere of 5% CO2 for 2 h. Following this period, test compounds were dispensed by Tecan across the desired concentration range with all wells normalized to a final 0.5% DMSO concentration. The plates were then then incubated at 37° C. under a humidified atmosphere of 5% CO2 for 1 h. Following this period, 5 μL of the 5 mg/mL nigericin stock solution was added to each of the appropriate wells and plates were centrifuged at 1000 rpm for 30 seconds. The plates were the immediately reintroduced to the incubator at 37° C. under a humidified atmosphere of 5% CO2 for 2 h. After this time, 35 μL/well of supernatant was collected and transferred into v-bottom plate and centrifuged at 1000 rpm for 1 minute. These supernatant aliquots were analyzed using an IL-Iβ detection kit as described below. If needed, the test samples could be snap frozen and stored at −80° C. until analyzed.
To prepare each ELISA plate, capture antibody (mAb Mt175) was diluted with PBS to a final concentration of […] and then 20 μL of this solution was added to each well of the ELISA plate. Each plate was allowed to incubate overnight at 4° C. The next day, the capture antibody solution was removed and discarded. Each ELISA plate was washed 4 times with PBST followed by the addition of 25 µL/well of blocking buffer (Licor-927-40010) supplemented with 0.1% Tween 20. Each ELISA plate was then allowed to incubate for 1 hour at 23° C. […]
In general terms: An ELISA detects its analyte on a solid surface through an enzyme-linked reagent.

[1] abbreviates: Homo sapiens, THP-1, THP-1 cells, read-out: Activity.
The mark [2] stands for this setting: Homo sapiens, THP-1, THP-1 cells, read-out: Activity (IC50 class).
[3] abbreviates: THP-1 cells, read-out: Activity.
The mark [4] stands for this setting: THP-1 cells, read-out: Activity (IC50 class).

With `N#Cc1cnc(NC(=O)CN2C[C@]3(C[C@H]3F)c3cc(C4(F)CC4)ccc3C2=O)nc1` [Example 3, 2-[(2′R,4S)-2′-fluoro-6-(1-fluorocyclopropyl)-1-oxospiro[3H-isoquinoline-4,1′-cyclopropane]-2-yl]-N-(5-cyanopyrimidin-2-yl)acetamide], the IC50 was 17 nM under setting [1] and less than 1000 nM under setting [2].

As for `O=C(CN1CC2(CC2)c2cc(Br)ccc2C1=O)Nc1ncc2c(C(F)(F)F)n[nH]c2n1` [Example 58, 2-(6-bromo-1-oxospiro[3H-isoquinoline-4,1′-cyclopropane]-2-yl)-N-[3-(trifluoromethyl)-1H-pyrazolo[3,4-d]pyrimidin-6-yl]acetamide], the IC50 under setting [1] is 279 nM and the IC50 under setting [2] is less than 1000 nM.

On to `O=C(CN1CC2(CC2(F)F)c2cc(C3(F)CC3)ccc2C1=O)Nc1ncc(F)cn1` (single isomer, unassigned) [Example 27, N-(5-fluoropyrimidin-2-yl)-2-[1′,1′-difluoro-6-(1-fluorocyclopropyl)-1-oxospiro[3H-isoquinoline-4,2′-cyclopropane]-2-yl]acetamide], for which the IC50 is 128 nM under setting [3] and less than 1000 nM under setting [4].

Take `Cc1cnc(NC(=O)CN2CC3(CC3(F)F)c3cc(Br)ccc3C2=O)nc1` (single isomer, unassigned) [Example 19, N-(5-methylpyrimidin-2-yl)-2-[6-bromo-1′,1′-difluoro-1-oxospiro[3H-isoquinoline-4,2′-cyclopropane]-2-yl]acetamide]: the IC50 under setting [3] stood at 65 nM and the IC50 under setting [4] is less than 1000 nM.

Consider `Cc1cnc(NC(=O)CN2CC3(CC3(F)F)c3c(ccc(C4CC4)c3F)C2=O)nc1` (single isomer, unassigned) [Example 36, N-(5-methylpyrimidin-2-yl)-2-[6-cyclopropyl-1′,1′,5-trifluoro-1-oxospiro[3H-isoquinoline-4,2′-cyclopropane]-2-yl]acetamide], for which the IC50 reads like this: under setting [3], 22400 nM; under setting [4], more than 10000 nM.

On to `O=C(CN1CC2(CC2)c2cc(Br)ccc2C1=O)Nc1ncc2nc[nH]c2n1` [Example 55, 2-(6-bromo-1-oxospiro[3H-isoquinoline-4,1′-cyclopropane]-2-yl)-N-(9H-purin-2-yl)acetamide], for which the IC50 runs as follows: under setting [1], 114 nM; under setting [2], less than 1000 nM.

Turning to `O=C(CN1CC2(CC2(F)F)c2cc(Br)ccc2C1=O)Nc1ncc(Cl)cn1` (single isomer, unassigned) [Example 17, N-(5-chloropyrimidin-2-yl)-2-[6-bromo-1′,1′-difluoro-1-oxospiro[3H-isoquinoline-4,2′-cyclopropane]-2-yl]acetamide], the IC50 runs as follows: under setting [3], 28 nM; under setting [4], less than 1000 nM.

Take `O=C(CN1C[C@]2(C[C@H]2F)c2cc(C(F)(F)F)ccc2C1=O)Nc1nc2ccccn2n1` (single isomer, unassigned) [Example 50, 2-[(2′s,4r)-2′-fluoro-1-oxo-6-(trifluoromethyl)spiro[3H-isoquinoline-4,1′-cyclopropane]-2-yl]-N-([1,2,4]triazolo[1,5-a]pyridin-2-yl)acetamide]: the IC50 is 184 nM under setting [3] and less than 1000 nM under setting [4].

`O=C(CN1CC2(CC2(F)F)c2c(ccc(Br)c2F)C1=O)Nc1nc2ccccn2n1` (single isomer, unassigned) [Example 30, N-([1,2,4]triazolo[1,5-a]pyridin-2-yl)-2-[6-bromo-1′,1′,5-trifluoro-1-oxospiro[3H-isoquinoline-4,2′-cyclopropane]-2-yl]acetamide]: the IC50 is, setting by setting: under setting [3], 29200 nM; under setting [4], more than 10000 nM.

Take `O=C(CN1CC2(CC2(F)F)c2cc(C3(F)CC3)ccc2C1=O)Nc1ncc(F)cn1` (single isomer, unassigned) [Example 26, N-(5-fluoropyrimidin-2-yl)-2-[1′,1′-difluoro-6-(1-fluorocyclopropyl)-1-oxospiro[3H-isoquinoline-4,2′-cyclopropane]-2-yl]acetamide]: the IC50 is 1000 to 10000 nM under setting [2] and 5880 nM under setting [3].

As for `C[C@]1(O)C[C@@H](NC(=O)CN2CC(C(F)(F)F)c3cc(I)ccc3C2=O)C1` (single isomer, unassigned) [Example 10, N-(3-cis-hydroxy-3-methylcyclobutyl)-2-(6-iodo-1-oxo-4-(trifluoromethyl)-3,4-dihydroisoquinolin-2(1H)-yl)acetamide], the IC50 is, setting by setting: under setting [2], 1000 to 10000 nM; under setting [3], 4080 nM.

As to `O=C(CN1CC2(CC2(F)F)c2cc(Br)ccc2C1=O)Nc1ncc2cn[nH]c2n1` (single isomer, unassigned) [Example 65, 2-(6-bromo-1′,1′-difluoro-1-oxospiro[3H-isoquinoline-4,2′-cyclopropane]-2-yl)-N-(1H-pyrazolo[3,4-d]pyrimidin-6-yl)acetamide], the IC50 under setting [3] was 504 nM and the IC50 under setting [4] was less than 1000 nM.

As for `Cc1cnc(NC(=O)CN2CC3(CC3(F)F)c3c(ccc(Br)c3F)C2=O)nc1` (single isomer, unassigned) [Example 32, N-(5-methylpyrimidin-2-yl)-2-[6-bromo-1′,1′,5-trifluoro-1-oxospiro[3H-isoquinoline-4,2′-cyclopropane]-2-yl]acetamide], the IC50 under setting [3] worked out at 28600 nM and the IC50 under setting [4] is more than 10000 nM.

Turning to `O=C(CN1C[C@]2(C[C@H]2F)c2c(ccc(Cl)c2F)C1=O)Nc1ncc2cn[nH]c2n1` (single isomer, unassigned) [Example 45, 2-[(2′s,4r)-6-chloro-2′,5-difluoro-1-oxospiro[3H-isoquinoline-4,1′-cyclopropane]-2-yl]-N-(1H-pyrazolo[3,4-d]pyrimidin-6-yl)acetamide], the IC50 under setting [1] amounted to 48 nM and the IC50 under setting [2] was less than 1000 nM.

In the case of `Cc1cnc(NC(=O)CN2CC(C(F)(F)F)c3cc(C)ccc3C2=O)nc1` (stereo not drawn) [Example 9, 2-(6-methyl-1-oxo-4-(trifluoromethyl)-3,4-dihydroisoquinolin-2(1H)-yl)-N-(5-methylpyrimidin-2-yl)acetamide], the IC50 reads like this: under setting [1], 1540 nM; under setting [2], 1000 to 10000 nM.

As to `O=C(CN1C[C@]2(C[C@H]2F)c2cc(C(F)(F)F)ccc2C1=O)Nc1nc2ccccn2n1` (single isomer, unassigned) [Example 49, 2-[(2′s,4r)-2′-fluoro-1-oxo-6-(trifluoromethyl)spiro[3H-isoquinoline-4,1′-cyclopropane]-2-yl]-N-([1,2,4]triazolo[1,5-a]pyridin-2-yl)acetamide], the IC50 under setting [2] was 1000 to 10000 nM and the IC50 under setting [3] is 1960 nM.

Turning to `C[C@]1(O)C[C@@H](NC(=O)CN2CC3(CC3(F)F)c3cc(Br)ccc3C2=O)C1` (single isomer, unassigned) [Example 20, N-(3-cis-hydroxy-3-methylcyclobutyl)-2-[6-bromo-1′,1′-difluoro-1-oxospiro[3H-isoquinoline-4,2′-cyclopropane]-2-yl]acetamide], the IC50 was 12900 nM under setting [3] and more than 10000 nM under setting [4].

As to `O=C(CN1CC2(CC2(F)F)c2cc(Br)ccc2C1=O)Nc1ncc2cn[nH]c2n1` (stereo not drawn) [Example 63, 2-(6-bromo-1′,1′-difluoro-1-oxospiro[3H-isoquinoline-4,2′-cyclopropane]-2-yl)-N-(1H-pyrazolo[3,4-d]pyrimidin-6-yl)acetamide], the IC50 runs as follows: under setting [1], 34 nM; under setting [2], less than 1000 nM.
